System: patient motor neurons
Experiment: Electron microscopy of mitochondrial morphology in iPSC-derived motor neurons
Type: cell-based, human
Conditions: NFX 0.5 μM, 72 h
Experimental: Cells were seeded on 24 wells/plate, fixed with 1.6% glutaraldehyde in 0.1 M cacodylate buffer (pH 7.4) for 2 hours, rinsed and postfixed in 1% osmium tetroxide and 1% potassium ferrocyanide in 0.1 M cacodylate buffer before to processed for ultrastructure as previously described (Bannwarth et al., Brain, 2014, 137, 2329-2345). The protocol for contrasting sections was slightly modified, using a 5% Lanthanide salt solution (a mixture of Gadolinium acetate and Samarium acetate) for 7 minutes instead of uranium acetate. The cells were examined under a JEOL 1400 transmission electron microscope. The ultrastructure of mitochondria was classified in three categories. Normal: the mitochondria have numerous, parallel and well organized cristae. Intermediary: the mitochondria have less cristae, they show few round or swollen cristae or have a mild disorganisation. Abnormal: the mitochondria have swollen, disorganized or no cristae. More than 100 mitochondria were classified per condition. iPSC clones were generated from human fibroblasts as previously described (Genin et al., Acta Neuropathol., 2019, 138, 123-145). Motor neurons were differentiated from iPSC using previously described and validated protocols with some modifications. Briefly, iPSC clones were detached by Accutase treatment to form small clusters. […]

For `O=C(N/N=C/c1ccc([N+](=O)[O-])o1)c1ccc(O)cc1` [NFX, (E)-4-hydroxy-N′-((5-nitrofuran-2-yl)methylene)benzohydrazide], the “mitochondrial morphology and cristae shape (EM)” value was “improved”.

— US20250025439A1, “DERIVATIVES OF NIFUROXAZIDE FOR USE IN THE TREATMENT OF MITOCHONDRIAL DISORDERS AND NEURODEGENERATIVE DISEASES” (priority 2021, published 2025)
